Experiments:
Type in all cases: functional
[1] = species on record: Rattus norvegicus; test: Emax by measuring IP2 accumulation using rat fore brain synaptoneurosomes
[2] = species on record: Rattus norvegicus; test: Effective concentration by measuring IP2 accumulation using rat fore brain synaptoneurosomes
[3] = species on record: Rattus norvegicus; test: Emax by measuring IP1 accumulation using rat fore brain synaptoneurosomes
[4] = species on record: Rattus norvegicus; test: Effective concentration by measuring IP1 accumulation using rat fore brain synaptoneurosomes

SMILES	Emax [1]	EC50 [2]	Emax [3]	EC50 [4]
C[C@@](N)(C(=O)O)c1ccc(C(=O)O)cc1.N[C@@]1(C(=O)O)CC[C@@H](C(=O)O)C1	643%	224 µM	269%	109 µM
N[C@@H](CC(C=O)CCCCN1C(=O)c2ccccc2C1=O)C(=O)O.N[C@@]1(C(=O)O)CC[C@@H](C(=O)O)C1 (some centres undefined)	543%	79 µM	264%	37 µM
C[C@@](N)(C(=O)O)c1ccc(C(=O)O)cc1.N[C@@H](Cn1oc(=O)[nH]c1=O)C(=O)O	358%	1.34 µM	225%	0.63 µM
N[C@@H](CC(C=O)CCCCN1C(=O)c2ccccc2C1=O)C(=O)O.N[C@@H](Cn1oc(=O)[nH]c1=O)C(=O)O (some centres undefined)	359%	0.27 µM	216%	0.14 µM
N[C@@]1(C(=O)O)CC[C@@H](C(=O)O)C1	700%	38 µM	284%	17 µM
N[C@@H](Cn1oc(=O)[nH]c1=O)C(=O)O [QUISQUALATE]	524%	0.32 µM	240%	0.1 µM
